Assay results from article PMC7416749 (Journal of genetics and genomics = Yi chuan xue bao, 2020).

Columns and labels:
[1] = system: dP75 IBD-containing C-terminus region (residues 209–445); test: Isothermal titration calorimetry; assay type: binding, Drosophila; conditions: ITC, 20 °C, mutant peptides 984–1004 compared with wild type
[2] = molecular target: dP75 IBD-containing C-terminus region (residues 209–445) (Drosophila melanogaster); test: ITC

effect of substitution in Jil-1 peptide 984–1004 on binding to dP75 (in words) [1]	Kd [2] [µM]	Molecule
dramatically reduced the binding		F992A: Jil-1 peptide 984–1004 with F992A substitution (EVQADFYGADENAPPLPLPEE; UniProt Q9V3I5 984-1004, looked up, variant F992A)
	0.8	Jil-1 peptide from the proximal site (…; residues 984–1004)

Continued, molecule first:

Molecule	effect of substitution in Jil-1 peptide 984–1004 on binding to dP75 (in words) [1]	Kd [2] [µM]
F989A: Jil-1 peptide 984–1004 with F989A substitution (EVQADAYGFDENAPPLPLPEE; UniProt Q9V3I5 984-1004, looked up, variant F989A)	dramatically reduced the binding	
G991V: Jil-1 peptide 984–1004 with G991V substitution (EVQADFYVFDENAPPLPLPEE; UniProt Q9V3I5 984-1004, looked up, variant G991V)	dramatically reduced the binding	
KREENFYGFSK [Jil-1 peptide at the distal site (…; residues 1102–1112)]		120
